Target: T1, recombinant human DGAT1 (Homo sapiens, UniProt O75907)
T1 construct: made in house; host or cells: Sf9 insect cells (baculovirus)
T1 sequence (O75907 1-488): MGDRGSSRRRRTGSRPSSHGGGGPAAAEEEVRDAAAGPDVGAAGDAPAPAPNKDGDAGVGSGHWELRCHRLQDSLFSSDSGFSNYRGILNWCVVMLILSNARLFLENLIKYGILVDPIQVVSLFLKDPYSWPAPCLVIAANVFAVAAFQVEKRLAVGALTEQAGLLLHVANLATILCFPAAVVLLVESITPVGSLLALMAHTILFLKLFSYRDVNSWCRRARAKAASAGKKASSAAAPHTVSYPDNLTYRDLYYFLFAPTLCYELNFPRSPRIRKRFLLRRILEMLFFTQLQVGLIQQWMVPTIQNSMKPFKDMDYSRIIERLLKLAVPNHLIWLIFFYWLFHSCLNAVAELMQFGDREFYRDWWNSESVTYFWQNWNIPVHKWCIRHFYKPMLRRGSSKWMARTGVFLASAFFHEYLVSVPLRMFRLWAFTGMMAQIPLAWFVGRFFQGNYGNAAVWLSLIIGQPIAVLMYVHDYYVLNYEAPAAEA
Experiment: DGAT1 enzyme assay
Type: biochemical
Conditions: membranes from Sf9 insect cells expressing recombinant human DGAT1; 25 μM 2-monooleoyl-glycerol, 25 μM [3H]-stearoyl-CoA, pH 7.4, 30 min, 25° C., SPA
Experimental: DGAT1 enzyme assays were conducted using membranes isolated from Sf9 insect cells expressing the recombinant human DGAT1 cDNA. The assays were conducted in 384-well plates with total volume of 25 μl at 25° C. In each assay, 300 ng of recombinant human DGAT1 membrane was incubated with 25 μM of 2-monooleoyl-glycerol and 25 μM of [^3H]-stearoyl-CoA in 100 mM potassium phosphate (pH 7.4) for 30 min with various concentrations of compounds delivered in DMSO. The assay was terminated by the addition of 30 μl of Stopping Solution [50 mM HEPES, 5 mg/ml Yittrium Oxide (YOX) Polylysine SPA beads, 3.33 mg/ml Fraction V BSA, 200 μM Mercuric chloride]. The signal was measured using LEADSEEKER^SM for 5 minutes. To calculate the degree of inhibition, the zero level of enzyme activity (blank) was defined by the above assay using Sf9 cell membrane uninfected with baculovirus and the 100% level of DGAT1 enzyme activity was defined by human DGAT1 assay with the vehicle DMSO. The IC50 values of inhibitors were determined by Excel-fit.

| SMILES | IC50 |
| --- | --- |
| CC(C)[C@H](Cc1nnc2cc(-c3ccc(Nc4nc5ccc(Cl)cc5s4)cc3)ccn12)C(=O)O [Example 1, (S)-2-((7-(4-(6-Chlorobenzo[d]thiazol-2-ylamino)phenyl)-[1,2,4]triazolo[4,3-a]pyridin-3-yl)methyl)-3-methylbutanoic acid] | 0.01 µM |
| COC(=O)[C@@H](Cc1nnc2cc(-c3ccc(Nc4nc5ccc(Cl)cc5s4)cc3)ccn12)C(C)C [Example 1F, (S)-Methyl 2-((7-(4-(6-chlorobenzo[d]thiazol-2-ylamino)phenyl)-[1,2,4]triazolo[4,3-a]pyridin-3-yl)methyl)-3-methylbutanoate] | 7.2 µM |
| CC(C)[C@@H](Cc1nnc2cc(-c3ccc(Nc4nc5ccc(Cl)cc5s4)cc3)ccn12)C(=O)O [Example 2, (R)-2-((7-(4-(6-Chlorobenzo[d]thiazol-2-ylamino)phenyl)-[1,2,4]triazolo[4,3-a]pyridin-3-yl)methyl)-3-methylbutanoic acid] | 0.16 µM |
| CC(C)C[C@H](Cc1nnc2cc(-c3ccc(Nc4nc5ccc(Cl)cc5s4)cc3)ccn12)C(=O)O [Example 3, (R)-2-((7-(4-(6-Chlorobenzo[d]thiazol-2-ylamino)phenyl)-[1,2,4]triazolo[4,3-a]pyridin-3-yl)methyl)-4-methylpentanoic acid] | 0.32 µM |
| CC(C)C[C@@H](Cc1nnc2cc(-c3ccc(Nc4nc5ccc(Cl)cc5s4)cc3)ccn12)C(=O)O [Example 4, (S)-2-((7-(4-(6-Chlorobenzo[d]thiazol-2-ylamino)phenyl)-[1,2,4]triazolo[4,3-a]pyridin-3-yl)methyl)-4-methylpentanoic acid] | 2.8 µM |
| CCCC[C@H](Cc1nnc2cc(-c3ccc(Nc4nc5ccc(Cl)cc5s4)cc3)ccn12)C(=O)O [Example 5, (R)-2-((7-(4-(6-Chlorobenzo[d]thiazol-2-ylamino)phenyl)-[1,2,4]triazolo[4,3-a]pyridin-3-yl)methyl)hexanoic acid] | 0.2 µM |
| O=C(O)[C@@H](Cc1nnc2cc(-c3ccc(Nc4nc5ccc(Cl)cc5s4)cc3)ccn12)CC1CCCCC1 [Example 6, (R)-3-(7-(4-(6-Chlorobenzo[d]thiazol-2-ylamino)phenyl)-[1,2,4]triazolo[4,3-a]pyridin-3-yl)-2-(cyclohexylmethyl)propanoic acid] | 3.6 µM |
| O=C(O)[C@@H](Cc1nnc2cc(-c3ccc(Nc4nc5ccc(Cl)cc5s4)cc3)ccn12)C1CCCCC1 [Example 7, (S)-3-(7-(4-(6-Chlorobenzo[d]thiazol-2-ylamino)phenyl)-[1,2,4]triazolo[4,3-a]pyridin-3-yl)-2-cyclohexylpropanoic acid] | 2.8 µM |
| O=C(O)CCc1nnc2cc(-c3ccc(Nc4nc5ccc(Cl)cc5s4)cc3)ccn12 [Example 8, 3-(7-(4-(6-Chlorobenzo[d]thiazol-2-ylamino)phenyl)-[1,2,4]triazolo[4,3-a]pyridin-3-yl)propanoic acid] | 0.49 µM |

Continued, values first:

| IC50 | SMILES |
| --- | --- |
| 15 µM | COC(=O)[C@H](Cc1nnc2cc(-c3ccc(Nc4nc5ccc(Cl)cc5s4)cc3)ccn12)C(C)C [Example 2B, (R)-Methyl 2-((7-(4-(6-chlorobenzo[d]thiazol-2-ylamino)phenyl)-[1,2,4]triazolo[4,3-a]pyridin-3-yl)methyl)-3-methylbutanoate] |
| 25 µM | COC(=O)[C@@H](Cc1nnc2cc(-c3ccc(Nc4nc5ccc(Cl)cc5s4)cc3)ccn12)CC(C)C [Example 3B, (R)-Methyl 2-((7-(4-(6-chlorobenzo[d]thiazol-2-ylamino)phenyl)-[1,2,4]triazolo[4,3-a]pyridin-3-yl)methyl)-4-methylpentanoate] |
| 50 µM | COC(=O)[C@H](Cc1nnc2cc(-c3ccc(Nc4nc5ccc(Cl)cc5s4)cc3)ccn12)CC(C)C [Example 4B, (S)-Methyl 2-((7-(4-(6-chlorobenzo[d]thiazol-2-ylamino)phenyl)-[1,2,4]triazolo[4,3-a]pyridin-3-yl)methyl)-4-methylpentanoate] |

Reference: patent US8394823B2, “Triazolopyridine compounds useful as DGAT1 inhibitors” (Bristol-Myers Squibb Company, priority 2008, dated 2013)
